Test results reported in paper PMC2646255 (Journal of medicinal chemistry, 2008).

Columns and labels:
[1] = type: in vivo, rhesus monkeys (Macaca mulatta); settings: 1 mg/kg i.v. at 30 min after [^11C]3, DCPQ-treated monkeys
5-HT2C receptor = assay: NIMH-PDSP binding screen; settings: 10 μM
σ2 receptor = molecular target: T1, σ2 receptor (Rattus norvegicus, UniProt Q5U3Y7); assay: NIMH-PDSP binding screen
T1 sequence (Q5U3Y7 1-176): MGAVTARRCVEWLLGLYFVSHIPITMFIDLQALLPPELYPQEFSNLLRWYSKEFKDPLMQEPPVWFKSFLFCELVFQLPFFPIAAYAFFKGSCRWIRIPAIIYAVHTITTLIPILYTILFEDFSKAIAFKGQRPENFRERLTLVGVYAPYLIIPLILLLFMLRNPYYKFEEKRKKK

5-HT2A receptor = assay: NIMH-PDSP binding screen; settings: 10 μM
σ1 receptor = σ1 receptor (Cavia porcellus, UniProt Q60492); assay: NIMH-PDSP binding screen; settings: read-out: inhibition of binding
σ1 receptor, sequence (Q60492 whole entry): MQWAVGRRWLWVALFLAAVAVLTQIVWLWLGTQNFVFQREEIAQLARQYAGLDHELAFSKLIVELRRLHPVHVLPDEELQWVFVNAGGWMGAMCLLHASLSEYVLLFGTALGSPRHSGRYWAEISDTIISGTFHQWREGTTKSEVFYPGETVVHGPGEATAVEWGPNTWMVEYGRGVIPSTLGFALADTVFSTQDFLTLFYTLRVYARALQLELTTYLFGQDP

κ-opiate receptor = assay: NIMH-PDSP binding screen; settings: 10 μM
P-gp [2] = settings: monkey, DCPQ 8 mg/kg or 16 mg/kg i.v. before [^11C]3
[3] = monkey, DCPQ 8 mg/kg i.v.
P-gp [4] = settings: P-gp knockout mouse brain; cited from earlier work

**Q.** For `CN(C)C(=O)C(CCN1CCC(O)(c2ccc(Cl)cc2)CC1)(c1ccccc1)c1ccccc1` [loperamide, reference compound], which “effect on washout of radioactivity from brain” value [1] is on record?
**A.** no discernible effect

**Q.** With `CNC(=O)C(CCN1CCC(O)(c2ccc(Cl)cc2)CC1)(c1ccccc1)c1ccccc1` [Compound 3, 4-(4-(4-Chlorophenyl)-4-hydroxypiperidin-1-yl)-2,2-diphenyl-N-methyl-butanamide] as the molecule, how does the inhibition of binding (5-HT2C receptor) read?
**A.** < 50%

**Q.** What about the Ki (σ2 receptor; Ki, σ2) of the same molecule?
**A.** < 0.01 µM

**Q.** What about the inhibition at 10 µM (σ2 receptor; read-out: inhibition of binding) of the same molecule?
**A.** > 50%

**Q.** And the “effect on washout of radioactivity from brain” value [1]?
**A.** no discernible effect

**Q.** What about the inhibition of binding (5-HT2A receptor) of the same molecule?
**A.** < 50%

**Q.** What about the inhibition at 10 µM (σ1 receptor) of the same molecule?
**A.** > 50%

**Q.** And the inhibition of binding (κ-opiate receptor)?
**A.** < 50%

**Q.** Which results are given for `Cl.Cl.Cl.O[C@@H](COc1cccc2ncccc12)CN1CCN(C2c3ccccc3C3C(c4ccccc42)C3(Cl)Cl)CC1` (stereo partly drawn) [DCPQ, (2R)-anti-5-{3-[4-(10,11-dichloromethanodibenzo-suber-5-yl)piperazin-1-yl]-2-hydroxypropoxy}quinoline trihydrochloride, reference compound]?
**A.** effect on uptake of radioactivity into pituitary (P-gp [2]): no effect; effect on rate at which each radiometabolite emerged in plasma [3]: little effect

**Q.** With `CN([11CH3])C(=O)C(CCN1CCC(O)(c2ccc(Cl)cc2)CC1)(c1ccccc1)c1ccccc1` [[^11C]loperamide] as the molecule, how does the “unchanged radiotracer as share of radioactivity in brain” value (P-gp [4]) read?
**A.** ~ 50%
